Key:
[1] = system: C57bl/6 obese (ob/ob) mice; experiment: Obese Mice, Oral Glucose Tolerance Test; assay type: in vivo; conditions: 8 days on diet, oral glucose load 3 g/kg, vs control groups; for inhibition in vivo at 100 µmol/kg: level in diet 100 μmol kg^-1 of diet; for inhibition in vivo at 30 µmol/kg: level in diet 30 μmol kg^-1 of diet; for inhibition in vivo at 300 µmol/kg: level in diet 300 μmol kg^-1 of diet
Method: Obese Mice, Oral Glucose Tolerance Test
C57bl/6 obese (ob/ob) mice were fed on powdered oxoid diet. After at least one week, the mice continued on a powdered oxoid diet or were fed powdered oxoid diet containing the test compound. After 8 days on the supplemented diet all of the mice were fasted for 5 hours prior to receiving an oral load of glucose (3 g/kg). Blood samples for glucose analysis were taken 0, 45, 90 and 135 minutes after glucose administration and the results appear below as the percentage reduction in area under the blood glucose curve where test compound treated groups are compared with the control groups. 7 mice were used for each treatment.

[2] = system: spontaneously hypertensive rats; experiment: Anti-Hypertensive Activity, blood pressure in spontaneously hypertensive rats; assay type: in vivo
Method: Anti-Hypertensive Activity
Eight month old female, spontaneously hypertensive rats were given test compound once each day for 15 days. Prior to the experiment and on days 8 and 15, the rats were fasted overnight from 5.00 pm and blood pressure was recorded the following morning, immediately prior to dosing and again 2 h later. Food was returned after the 2 h blood pressure reading.
The results below were obtained using the compound of Example 3 as the test compound.

[3] = Mus musculus, 192 h, read-out: % REDUCTION IN AREA UNDER BLOOD GLUCOSE CURVE

| Compound | inhibition in vivo at 100 µmol/kg [1, 3] [%] | melting point [°C] | also measured |
| --- | --- | --- | --- |
| Cc1csc(N(C)CCOc2ccc(CC3SC(=O)NC3=O)cc2)n1 (centres unmarked) [Example 17, 5-(4-[2-(N-Methyl-N-[2-(4-methylthiazolyl)]amino)ethoxy]benzyl)-2,4-thiazolidinedione] | 34 | – | – |
| CN(CCOc1ccc(CC2SC(=O)NC2=O)cc1)c1ncccn1 (centres unmarked) [Example 5, 5-(4-[2-(N-Methyl-N-(2-pyrimidinyl)amino)ethoxy]benzyl)-2,4-thiazolidinedione] | 40 | – | – |
| CN(CCCCOc1ccc(/C=C2\SC(=O)NC2=O)cc1)c1nc2ccccc2o1 [Example 32, 5-(4-[4-(N-Methyl-N-(2-benzoxazolyl)amino)butoxy]benzylidene)-2 4-thiazolidinedione] | – | 168 | – |
| CN(CCOc1ccc(CC2SC(=O)NC2=O)cc1)c1nc(-c2ccccc2)cs1 (centres unmarked) [Example 11, 5-[4-(2-(N-Methyl-N-(2-(4-phenylthiazolyl))amino)ethoxy)benzyl]-2,4-thiazolidinedione] | 34 | 62 to 65 | – |
| Cc1nc(N(C)CCOc2ccc(CC3SC(=O)NC3=O)cc2)sc1-c1ccccc1 (centres unmarked) [Example 15, 5-(4-[2-(N-Methyl-N-[2-(4-methyl-5-phenylthiazolyl)]amino)ethoxy]benzyl)-2,4-thiazolidinedione] | 39 | 174 | – |
| Cc1nc(N(C)CCOc2ccc(CC3SC(=O)NC3=O)cc2)oc1C (centres unmarked) [Example 21, 5-(4-[2-(N-Methyl-N-[2-(4,5-dimethyloxazolyl)]amino)ethoxy]benzyl)-2,4-thiazolidinedione] | – | – | inhibition in vivo at 30 µmol/kg [1, 3]: 33% |
| CN(CCOc1ccc(CC2SC(=O)NC2=O)cc1)c1nc2ccccc2s1 (centres unmarked) [Example 1, 5-(4-[2-(N-Methyl-N-(2-benzothiazolyl)amino)ethoxy]benzyl)-2,4-thiazolidinedione] | 51 | – | – |
| CC(=O)N(CCOc1ccc(CC2SC(=O)NC2=O)cc1)c1ncccn1 (centres unmarked) [Example 25, 5-(4-[2-(N-Acetyl-N-(2-pyrimidinyl)amino)ethoxy]benzyl)-2,4-thiazolidinedione] | – | – | inhibition in vivo at 30 µmol/kg [1, 3]: 19% |
| O=C1NC(=O)C(Cc2ccc(OCCNc3nc4ccccc4o3)cc2)S1 (centres unmarked) [Example 35, 5-(4-[2-(N-(2-Benzoxazolyl)amino)ethoxy]benzyl)-2,4-thiazolidinedione] | 44 | 202 to 203 | – |
| CN(CCOc1ccc(/C=C2\SC(=O)NC2=O)cc1)c1ncc(-c2ccccc2)o1 [Example 20, 5-(4-[2-(N-Methyl-N-[2-(5-phenyloxazolyl)]amino)ethoxy]benzylidene)-2,4-thiazolidinedione] | – | 191 | – |
| 5-(4-[2-(N-Methyl-N-(2-benzoxazolyl)amino)ethoxy]benzyl)-2,4-thiazolidinedione hemihydrate [Example 3] | – | – | Blood pressure ([2]; 10 μmole/kg once each day, Day 0 (prior to the experiment), 0 hours): 210 ± 13 mm Hg; Blood pressure ([2]; 10 μmole/kg once each day, Day 8, 0 hours (immediately prior to dosing)): 191 ± 6 mm Hg; Blood pressure ([2]; 10 μmole/kg once each day, Day 8, 2 hours after dosing): 185 ± 12 mm Hg; Blood pressure ([2]; 10 μmole/kg once each day, Day 15, 0 hours (immediately prior to dosing)): 198 ± 17 mm Hg; Blood pressure ([2]; 10 μmole/kg once each day, Day 15, 2 hours after dosing): 185 ± 5 mm Hg; Blood pressure ([2]; 30 μmole/kg once each day, Day 0 (prior to the experiment), 0 hours): 210 ± 13 mm Hg; Blood pressure ([2]; 30 μmole/kg once each day, Day 8, 0 hours (immediately prior to dosing)): 181 ± 11 mm Hg; Blood pressure ([2]; 30 μmole/kg once each day, Day 8, 2 hours after dosing): 174 ± 15 mm Hg; Blood pressure ([2]; 30 μmole/kg once each day, Day 15, 0 hours (immediately prior to dosing)): 178 ± 18 mm Hg; Blood pressure ([2]; 30 μmole/kg once each day, Day 15, 2 hours after dosing): 170 ± 13 mm Hg; % REDUCTION IN AREA UNDER BLOOD GLUCOSE CURVE ([1]; level in diet 10 μmol kg^-1 of diet): 39% |
| O=C1NC(=O)C(Cc2ccc(OCCN(Cc3ccccc3)c3nc4ccccc4s3)cc2)S1 (centres unmarked) [Example 27, 5-(4-(2-(N-(2-Benzothiazolyl)-N-benzylamino)ethoxy)benzyl)-2,4-thiazolidinedione] | – | – | inhibition in vivo at 300 µmol/kg [1, 3]: 56% |
| Cc1nc(N(C)CCOc2ccc(CC3SC(=O)NC3=O)cc2)sc1C (centres unmarked) [Example 7] | – | – | inhibition in vivo at 50 µmol/kg ([1]; Mus musculus, 192 h, level in diet 50 μmol kg^-1 of diet, read-out: % REDUCTION IN AREA UNDER BLOOD GLUCOSE CURVE): 47% |
| CN(CCOc1ccc(/C=C2\SC(=O)NC2=O)cc1)c1nc2ccccc2s1 [Example 2, 5-(4-[2-(N-Methyl-N-(2-benzothiazolyl)amino)ethoxy]benzylidene)-2,4-thiazolidinedione] | – | – | inhibition in vivo at 300 µmol/kg [1, 3]: 30% |
| CN(CCOc1ccc(/C=C2\SC(=O)NC2=O)cc1)c1nc2ccccc2o1 [Example 4, 5-(4-[2-(N-Methyl-N-(2-benzoxazolyl)amino)ethoxy]benzylidene)-2,4-thiazolidinedione] | – | – | inhibition in vivo at 300 µmol/kg [1, 3]: 30% |
| CN(CCOc1ccc(/C=C2\SC(=O)NC2=O)cc1)c1nc(-c2ccccc2)cs1 [Example 12, 5-(4-[2-(N-Methyl-N-(2-(4-phenylthiazolyl))amino)ethoxy]benzylidene)-2,4-thiazolidinedione] | – | 134 | – |
| CN(CCCOc1ccc(/C=C2\SC(=O)NC2=O)cc1)c1nc2ccccc2o1 [Example 29, 5-(4-[3-(N-Methyl-N-(2-benzoxazolyl)amino)propoxy]benzylidene)-2,4-thiazolidinedione] | – | 202 to 204 | inhibition in vivo at 300 µmol/kg [1, 3]: 32% |
| O=C1NC(=O)/C(=C/c2ccc(OCCNc3ncccn3)cc2)S1 [Example 24, 5-[4-(2-(2-Pyrimidinylamino)ethoxy)benzylidene]-2,4-thiazolidinedione] | – | 234 | inhibition in vivo at 30 µmol/kg [1, 3]: 15% |
| CN(CCOc1ccc(/C=C2\SC(=O)NC2=O)cc1)c1ccccn1 [Example 31, 5-(4-[2-(N-Methyl-N-(2-pyridyl)amino)ethoxy]benzylidene)-2,4-thiazolidinedione] | – | 177 to 179 | – |
| CN(CCCCOc1ccc(CC2SC(=O)NC2=O)cc1)c1nc2ccccc2o1 (centres unmarked) [Example 33, 5-(4-[4-(N-Methyl-N-(2-benzoxazolyl)amino)butoxy]benzyl)-2,4-thiazolidinedione] | – | 112 | inhibition in vivo at 300 µmol/kg [1, 3]: 25% |
| CN(CCOc1ccc(CC2SC(=O)NC2=O)cc1)c1ncc(-c2ccccc2)o1 (centres unmarked) [Example 19, 5-[4-(2-(N-Methyl-N-[2-(5-phenyloxazolyl)]amino)ethoxy)benzyl]-2,4-thiazolidinedione] | – | 200 | inhibition in vivo at 30 µmol/kg [1, 3]: 22% |
| CN(CCOc1ccc(CC2SC(=O)NC2=O)cc1)c1nccs1 (centres unmarked) [Example 9, 5-(4-[2-(N-Methyl-N-(2-thiazolyl)amino)ethoxy]benzyl)-2,4-thiazolidinedione] | 58 | 186 | – |
| Cc1sc(N(C)CCOc2ccc(CC3SC(=O)NC3=O)cc2)nc1-c1ccccc1 (centres unmarked) [Example 13, 5-(4-[2-(N-Methyl-N-[2-(4-phenyl-5-methylthiazolyl)]amino)ethoxy]benzyl)-2,4-thiazolidinedione] | 37 | 60 to 62 | – |
| Cc1nc(N(C)CCOc2ccc(/C=C3\SC(=O)NC3=O)cc2)sc1C [Example 8, 5-(4-[2-(N-Methyl-N-[2-(4,5-dimethylthiazolyl)]amino)ethoxy]benzylidene)-2,4-thiazolidinedione] | – | 175 | – |
| CC(C)N(CCOc1ccc(CC2SC(=O)NC2=O)cc1)c1nc2ccccc2o1 (centres unmarked) [Example 36, 5-(4-[2-(N-Isopropyl-N-(2-benzoxazolyl)amino)ethoxy]benzyl)-2,4-thiazolidinedione] | 20 | – | – |
